Data reported in ChEMBL document CHEMBL1201862, “PubChem BioAssay data set” (2004).
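Values below derive from 48-hour exposures of cells grown in 96-well plates, with endpoints linearly interpolated between the two concentrations bracketing the appropriate inhibition level. The concentration for 50% growth inhibition is given as GI50.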 Activity calls are given as the source filed them. Rule as the data show it: active = GI50 up to about 1.1 µM and inactive = higher.

What was measured:
Assay in all cases: growth of human tumour cells (NCI), 48 h
786-0 = tested on: 786-0
A498 = tested on: A498
A549 = tested on: A549
ACHN = tested on: ACHN
BT-549 = tested on: BT-549
CAKI-1 = tested on: CAKI-1
CCRF-CEM = tested on: CCRF-CEM
COLO 205 = tested on: COLO 205
DMS-114 = tested on: DMS-114
DMS-273 = tested on: DMS-273
DU-145 = tested on: DU-145
EKVX = tested on: EKVX
HCC 2998 = tested on: HCC 2998
HCT-116 = tested on: HCT-116
HCT-15 = tested on: HCT-15
HL-60 = tested on: HL-60
HOP-18 = tested on: HOP-18
HOP-62 = tested on: HOP-62
HOP-92 = tested on: HOP-92
HT-29 = tested on: HT-29
Hs-578T = tested on: Hs-578T
IGROV-1 = tested on: IGROV-1
K562 = tested on: K562
KM-20L2 = tested on: KM-20L2
KM12 = tested on: KM12
LOX IMVI = tested on: LOX IMVI
M14 = tested on: M14
M19-MEL = tested on: M19-MEL
MCF7 = tested on: MCF7
MDA-MB-231 = tested on: MDA-MB-231
MDA-MB-435 = tested on: MDA-MB-435
MDA-N = tested on: MDA-N
MOLT-4 = tested on: MOLT-4
Malme-3M = tested on: Malme-3M
NCI-H226 = tested on: NCI-H226
NCI-H23 = tested on: NCI-H23
NCI-H460 = tested on: NCI-H460
NCI-H522 = tested on: NCI-H522
NCI/ADR-RES = tested on: NCI/ADR-RES
OVCAR-3 = tested on: OVCAR-3
OVCAR-4 = tested on: OVCAR-4
OVCAR-5 = tested on: OVCAR-5
OVCAR-8 = tested on: OVCAR-8
PC-3 = tested on: PC-3
RPMI-8226 = tested on: RPMI-8226
RXF 393 = tested on: RXF 393
RXF 631 = tested on: RXF 631
SF-268 = tested on: SF-268
SF-295 = tested on: SF-295
SF-539 = tested on: SF-539
SK-MEL-28 = tested on: SK-MEL-28
SK-MEL-2 = tested on: SK-MEL-2
SK-MEL-5 = tested on: SK-MEL-5
SK-OV-3 = tested on: SK-OV-3
SN12C = tested on: SN12C
SNB-19 = tested on: SNB-19
SNB-75 = tested on: SNB-75
SNB-78 = tested on: SNB-78
SW-620 = tested on: SW-620
T47D = tested on: T47D
TK-10 = tested on: TK-10
U-251 = tested on: U-251
UACC-257 = tested on: UACC-257
UACC-62 = tested on: UACC-62
UO-31 = tested on: UO-31
XF498 = tested on: XF498
DLD-1 = tested on: DLD-1
LXFL 529 = tested on: LXFL 529
SR = tested on: SR

Structure (SMILES): COc1ccccc1C(=O)Nc1ccc(Cl)c(C(=O)OC(C)C)c1
- GI50 (786-0): 38 µM (inactive)
- GI50 (A498): > 50.9 µM (inactive)
- GI50 (A549): 40.2 µM (inactive)
- GI50 (ACHN): 16 µM (inactive)
- GI50 (BT-549): 64.9 µM (inactive)
- GI50 (CAKI-1): > 67 µM (inactive)
- GI50 (CCRF-CEM): 36.4 µM (inactive)
- GI50 (COLO 205): > 61.5 µM (inactive)
- GI50 (DMS-114): 19 µM (inactive)
- GI50 (DMS-273): 35.3 µM (inactive)
- GI50 (DU-145): 49.2 µM (inactive)
- GI50 (EKVX): 39.9 µM (inactive)
- GI50 (HCC 2998): > 63.7 µM (inactive)
- GI50 (HCT-116): 39.1 µM (inactive)
- GI50 (HCT-15): 32.1 µM
- GI50 (HL-60): > 41.1 µM (inactive)
- GI50 (HOP-18): > 100 µM (inactive)
- GI50 (HOP-62): 48 µM (inactive)
- GI50 (HOP-92): 42.3 µM (inactive)
- GI50 (HT-29): 27.4 µM (inactive)
- GI50 (Hs-578T): > 100 µM (inactive)
- GI50 (IGROV-1): > 66.8 µM (inactive)
- GI50 (K562): 28.4 µM (inactive)
- GI50 (KM-20L2): 28.6 µM (inactive)
- GI50 (KM12): 25.9 µM (inactive)
- GI50 (LOX IMVI): 43 µM (inactive)
- GI50 (M14): > 54.6 µM (inactive)
- GI50 (M19-MEL): 30.8 µM (inactive)
- GI50 (MCF7): 42 µM (inactive)
- GI50 (MDA-MB-231): > 100 µM (inactive)
- GI50 (MDA-MB-435): > 100 µM (inactive)
- GI50 (MDA-N): 31.1 µM (inactive)
- GI50 (MOLT-4): > 45.8 µM (inactive)
- GI50 (Malme-3M): 4.45 µM (inactive)
- GI50 (NCI-H226): 47.4 µM (inactive)
- GI50 (NCI-H23): 13.5 µM (inactive)
- GI50 (NCI-H460): 37.4 µM (inactive)
- GI50 (NCI-H522): 33.2 µM (inactive)
- GI50 (NCI/ADR-RES): 16.4 µM (inactive)
- GI50 (OVCAR-3): > 46.1 µM (inactive)
- GI50 (OVCAR-4): 42.4 µM (inactive)
- GI50 (OVCAR-5): > 50 µM (inactive)
- GI50 (OVCAR-8): > 63 µM (inactive)
- GI50 (PC-3): 83.2 µM (inactive)
- GI50 (RPMI-8226): 18.3 µM (inactive)
- GI50 (RXF 393): 25 µM (inactive)
- GI50 (RXF 631): 41.1 µM (inactive)
- GI50 (SF-268): > 50.6 µM (inactive)
- GI50 (SF-295): 36.6 µM (inactive)
- GI50 (SF-539): > 67.3 µM (inactive)
- GI50 (SK-MEL-28): 36.2 µM (inactive)
- GI50 (SK-MEL-2): 31.8 µM (inactive)
- GI50 (SK-MEL-5): 31.8 µM (inactive)
- GI50 (SK-OV-3): 99.5 µM (inactive)
- GI50 (SN12C): 52.2 µM (inactive)
- GI50 (SNB-19): > 65.3 µM (inactive)
- GI50 (SNB-75): 35.4 µM (inactive)
- GI50 (SNB-78): 42 µM (inactive)
- GI50 (SW-620): > 61.1 µM (inactive)
- GI50 (T47D): 20.1 µM (inactive)
- GI50 (TK-10): > 80 µM (inactive)
- GI50 (U-251): 43 µM (inactive)
- GI50 (UACC-257): 30.5 µM (inactive)
- GI50 (UACC-62): 25.9 µM (inactive)
- GI50 (UO-31): 18.5 µM (inactive)
- GI50 (XF498): 21.9 µM (inactive)

Structure (SMILES): O=C1C2Cc3ccccc3CN2C(=O)N1CN1CCN(CN2C(=O)C3Cc4ccccc4CN3C2=O)CC1 (stereo not given)
- GI50 (786-0): > 100 µM (inactive)
- GI50 (A498): > 100 µM (inactive)
- GI50 (A549): > 100 µM (inactive)
- GI50 (ACHN): > 100 µM (inactive)
- GI50 (CAKI-1): > 100 µM (inactive)
- GI50 (CCRF-CEM): > 100 µM (inactive)
- GI50 (COLO 205): > 100 µM (inactive)
- GI50 (DLD-1): > 100 µM (inactive)
- GI50 (DMS-114): > 100 µM (inactive)
- GI50 (DMS-273): > 100 µM (inactive)
- GI50 (EKVX): > 100 µM (inactive)
- GI50 (HCC 2998): > 100 µM (inactive)
- GI50 (HCT-15): > 100 µM
- GI50 (HL-60): > 100 µM (inactive)
- GI50 (HOP-18): > 100 µM (inactive)
- GI50 (HOP-62): > 100 µM (inactive)
- GI50 (HOP-92): > 100 µM (inactive)
- GI50 (HT-29): > 100 µM (inactive)
- GI50 (IGROV-1): > 100 µM (inactive)
- GI50 (K562): > 100 µM (inactive)
- GI50 (KM-20L2): > 100 µM (inactive)
- GI50 (KM12): > 100 µM (inactive)
- GI50 (LOX IMVI): > 100 µM (inactive)
- GI50 (M19-MEL): > 100 µM (inactive)
- GI50 (MOLT-4): > 100 µM (inactive)
- GI50 (Malme-3M): > 100 µM (inactive)
- GI50 (NCI-H226): > 100 µM (inactive)
- GI50 (NCI-H23): > 100 µM (inactive)
- GI50 (NCI-H460): > 100 µM (inactive)
- GI50 (NCI-H522): > 100 µM (inactive)
- GI50 (OVCAR-3): > 100 µM (inactive)
- GI50 (OVCAR-5): > 100 µM (inactive)
- GI50 (OVCAR-8): > 100 µM (inactive)
- GI50 (RPMI-8226): > 100 µM (inactive)
- GI50 (RXF 393): > 100 µM (inactive)
- GI50 (RXF 631): > 100 µM (inactive)
- GI50 (SF-268): > 100 µM (inactive)
- GI50 (SF-295): > 100 µM (inactive)
- GI50 (SF-539): > 100 µM (inactive)
- GI50 (SK-MEL-28): > 100 µM (inactive)
- GI50 (SK-MEL-2): > 100 µM (inactive)
- GI50 (SK-MEL-5): > 100 µM (inactive)
- GI50 (SK-OV-3): > 100 µM (inactive)
- GI50 (SN12C): > 100 µM (inactive)
- GI50 (SNB-19): > 100 µM (inactive)
- GI50 (SNB-75): > 100 µM (inactive)
- GI50 (SNB-78): > 100 µM (inactive)
- GI50 (SW-620): > 100 µM (inactive)
- GI50 (TK-10): > 100 µM (inactive)
- GI50 (U-251): > 100 µM (inactive)
- GI50 (UACC-257): > 100 µM (inactive)
- GI50 (UACC-62): > 100 µM (inactive)
- GI50 (UO-31): > 100 µM (inactive)

Structure (SMILES): CS(=O)(=O)NNS(=O)(=O)c1cccc([N+](=O)[O-])c1
- GI50 (786-0): > 100 µM (inactive)
- GI50 (A498): > 100 µM (inactive)
- GI50 (A549): > 100 µM (inactive)
- GI50 (ACHN): > 100 µM (inactive)
- GI50 (CAKI-1): > 100 µM (inactive)
- GI50 (CCRF-CEM): > 100 µM (inactive)
- GI50 (COLO 205): > 100 µM (inactive)
- GI50 (DLD-1): > 100 µM (inactive)
- GI50 (DMS-114): > 100 µM (inactive)
- GI50 (DMS-273): > 100 µM (inactive)
- GI50 (EKVX): > 100 µM (inactive)
- GI50 (HCC 2998): > 100 µM (inactive)
- GI50 (HCT-116): > 100 µM (inactive)
- GI50 (HCT-15): > 100 µM
- GI50 (HL-60): > 100 µM (inactive)
- GI50 (HOP-62): > 100 µM (inactive)
- GI50 (HT-29): > 100 µM (inactive)
- GI50 (IGROV-1): > 100 µM (inactive)
- GI50 (K562): > 100 µM (inactive)
- GI50 (KM-20L2): > 100 µM (inactive)
- GI50 (KM12): > 100 µM (inactive)
- GI50 (LOX IMVI): > 100 µM (inactive)
- GI50 (LXFL 529): > 100 µM (inactive)
- GI50 (M14): > 100 µM (inactive)
- GI50 (M19-MEL): > 100 µM (inactive)
- GI50 (MOLT-4): > 100 µM (inactive)
- GI50 (Malme-3M): > 100 µM (inactive)
- GI50 (NCI-H226): > 100 µM (inactive)
- GI50 (NCI-H23): > 100 µM (inactive)
- GI50 (NCI-H460): > 100 µM (inactive)
- GI50 (NCI-H522): > 100 µM (inactive)
- GI50 (OVCAR-4): > 100 µM (inactive)
- GI50 (OVCAR-8): > 100 µM (inactive)
- GI50 (RPMI-8226): > 100 µM (inactive)
- GI50 (RXF 393): > 100 µM (inactive)
- GI50 (RXF 631): > 100 µM (inactive)
- GI50 (SF-295): > 100 µM (inactive)
- GI50 (SF-539): > 100 µM (inactive)
- GI50 (SK-MEL-2): > 100 µM (inactive)
- GI50 (SK-MEL-5): > 100 µM (inactive)
- GI50 (SN12C): > 100 µM (inactive)
- GI50 (SNB-19): > 100 µM (inactive)
- GI50 (SNB-75): > 100 µM (inactive)
- GI50 (SR): > 100 µM (inactive)
- GI50 (SW-620): > 100 µM (inactive)
- GI50 (TK-10): > 100 µM (inactive)
- GI50 (U-251): > 100 µM (inactive)
- GI50 (UACC-257): > 100 µM (inactive)
- GI50 (UACC-62): > 100 µM (inactive)
- GI50 (UO-31): > 100 µM (inactive)
- GI50 (XF498): > 100 µM (inactive)
